Patent US8841277B2, “Methods for treating non-small cell lung cancer using 5-azacytidine” (Celgene Corporation, priority 2009, dated 2014)
“Also recorded” adds a separate entry of the source.

Key:
A549 cells [1] = assay: Western analysis of DNA damage and apoptosis markers, A549; assay type: cell-based; conditions: for Induction of Histone H2AX phosphorylation (marker of DNA damage) / Induction of PARP cleavage (marker of apoptosis): 0.3-10 μM, 24 h to 72 h (3 days)
Procedure: (§1) These studies also examined apoptosis using an assay for PARP cleavage. Cells studied included H460, A549, and H1299 cells.
(§2) For western analyses of protein levels, cells were washed with PBS and lysed with RIPA buffer (Cell Signaling Technology, Inc.; Danvers, Mass.) containing 350 mM NaCl and 0.1% SDS. Cell lysates were sonicated with two 5-second bursts under low amplitude (20%) using the Digital Sonic Dismembrator (Thermo Fisher Scientific, Inc.; Waltham, Mass.). Proteins were separated on 4-12% Bis-Tris NuPAGE gels (Life Technologies Corporation) and transferred to nitrocellulose membranes. DNMT1, phos-Histone-H2AX(Ser139), total Histone-H2AX, cleaved-PARP, p21, p53, and alpha-tubulin were detected using the Li-Cor Odyssey imaging system (Li-Cor Biotechnology; Lincoln, Nebr.), following incubation with the appropriate primary and secondary antibodies. The phos-Histone-H2AX(Ser139), cleaved-PARP, and p21 antibodies were from Cell Signaling Technology, Inc. The p53 and total Histone-H2AX (C-20) antibodies were from Santa Cruz Biotechnology, Inc. (Santa Cruz, Calif.). The alpha-tubulin and DNMT1 antibodies were purchased from EMD Chemicals, Inc. (Gibbstown, N.J.) and Abcam, Inc. (Cambridge, Mass.), respectively. The goat anti-Rabbit IRDye 680, goat anti-Mouse IRDye 800CW, and donkey anti-Goat IRDye 800CW secondary antibodies were from Li-Cor Biotechnology.

DNMT1 [2] = assay: DNMT1 protein depletion, H23; assay type: cell-based; conditions: H23 cell line
Procedure: (§3) Reduced DNMT1 levels were detected in these cell lines as early as 4 hours after drug treatment (FIG. 17).

H23 cells = assay: Cell viability (CyQuant assay), H23; assay type: cell-based; conditions: 72 hours; for HillSlope / LogIC50 / IC50: H23 viability, best-fit value; for EC50 / IC50: Homo sapiens, NCI-H23; for EC50: H23, read-out: EC50 of effect on viability
Procedure: (§4) Certain NSCLC cell lines (H460, H1299, A549, and H1975) were purchased from American Type Culture Collection (ATCC; Manassas, Va.). The H23NSCLC cell line was obtained from the National Cancer Institute (NCI; Bethesda, Md.). Cell lines were cultured in their respective media, as recommended by ATCC and NCI. AZA was manufactured at Aptuit (Greenwich, Conn.) for Celgene (Summit, N.J.), while DAC was purchased from Sigma-Aldrich (St. Louis, Mo.). In all experiments, cells were seeded 24 hours before drug treatment and incubated at 37° C./5% CO2, For cell viability assays, H460, H1299, A549, H23, and H1975 cells were seeded in triplicate at 1×10^3, 1×10^3, 1×10^3, 4×10^3, and 4×10^3 cells per well, respectively, in 96-well plates, using 200 μL of medium per well. Fresh drug was added every 24 hours by replacing medium with drug-containing medium. For all other assays, cells were seeded at 0.6-1.2×10^5 cells per well, in 6-well plates, using 4 mL of medium per well, with fresh drug added directly to the medium every 24 hours.
(§5) Cell viability was assessed using the CyQuant assay (Life Technologies Corporation; Carlsbad, Calif.). Fluorescence was measured with a spectrophotometer (Molecular Devices; Sunnyvale, Calif.), and EC50 values were calculated in Prism® version 5.01 (GraphPad Software, Inc.; La Jolla, Calif.), using results from three independent experiments.
(§6) The six data sets represent calculations of EC50 values from raw data using Prism®. The standard deviation among the three independent experiments was determined at each drug concentration. For some of the cell lines, Prism® was not able to calculate the EC50 for DAC. For those curves that an EC50 was available, the SE (Std. Error) was acceptable (SE of the logEC50 should be less than 0.5), meaning that the standard errors were not too large. The 95% Confidence Intervals for the EC50 were considered as a measure of error.

A549 cells [3] = assay: Cell viability (CyQuant assay), A549; assay type: cell-based; conditions: 72 hours; for HillSlope / LogIC50 / IC50: A549 viability, best-fit value; for LogIC50: log(inhibitor) vs. normalized response -- Variable slope; for EC50 / IC50: Homo sapiens; for EC50: A549, read-out: EC50 of effect on viability
Procedure: as §4, §5, §6

A549 cells [4] = assay: Gene expression microarray analysis, A549; assay type: cell-based, human; conditions: 48 hours; for Downregulated Genes: AZA-Specific / DAC-Specific Genes (number) / Upregulated Genes: AZA-Specific / DAC-Specific Genes (number) / Downregulated Genes: Genes in Common (number) / Upregulated Genes: Genes in Common (number) / Regulation of genes in the Response to DNA Damage Stimulus/DNA Repair biogroup: A549; for Downregulated Genes: Genes in Common (number) / Upregulated Genes: Genes in Common (number): regulated by both AZA and DAC;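 as to Downregulated Genes: AZA-Specific / DAC-Specific Genes (number): drug dose range 0.3 to 3 µM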;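 as to Downregulated Genes: Genes in Common (number): drug dose range 0.3 to 3 µM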;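 as to Upregulated Genes: AZA-Specific / DAC-Specific Genes (number): drug dose range 0.3 to 3 µM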;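 as to Upregulated Genes: Genes in Common (number): drug dose range 0.3 to 3 µM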
Procedure: Cells were lysed using the TRIzol reagent (Life Technologies Corporation) and total RNA was isolated using miRNeasy (Qiagen). Double-stranded cDNA and biotin-labeled cRNA were synthesized using 100 ng of total RNA using Ambion's MessageAmp Premier RNA Amplification Kit (ABI; Foster City, Calif.). Biotin-labeled cRNA, at 10 μg, was fragmented and hybridized to each human U133A 2.0 genechip (Affymetrix; Santa Clara, Calif.). The GC-RMA algorithm was used for normalization and all analyses were done using GeneSpring 7.3 (Agilent; Santa Clara, Calif.). Averaged signals from biological duplicate samples were used to determine fold change (Treated vs. Untreated), with an absolute fold change of ≧1.7 defining regulated genes. NextBio was used to identify regulated Gene Ontology biogroups from lists of regulated genes. The top 15 biogroups are those with the lowest p-values calculated within NextBio.
The number of genes modulated in common between the two drugs was low.
Functional groupings of the modulated genes were determined using Gene Ontology classifications in Nextbio (http://www.nextbio.com/).

DNMT1 [5] = assay: DNMT1 protein depletion, H1299; assay type: cell-based; conditions: for DNMT1 protein levels: dose range
Procedure: as §2, §3

H460 cells = assay: Apoptosis (AnnexinV-FITC/7-AAD), H460; assay type: cell-based; conditions: 0.3-10 μM
Text: (§7) For cell cycle distribution, cells were stained with the NIM-DAPI reagent (Beckman Coulter, Inc.; Fullerton, Calif.). For measurement of early- and late-apoptotic cell populations, cells were stained with AnnexinV-FITC and 7-AAD reagents (Beckman Coulter, Inc.). Samples were processed according to manufacturer's instructions and analyzed on a Cell Lab Quanta MPL flow cytometer (Beckman Coulter, Inc.). […] Data were also collected for untreated cells as control.

NSCLC cell types = assay: Apoptosis (AnnexinV-FITC/7-AAD), summary; assay type: cell-based; conditions: summary of studies
Text: as §7

H1299 cells = assay: Western analysis of DNA damage and apoptosis markers, H1299; assay type: cell-based
Procedure: as §1, §2

[6] = 0.3-10 μM, up to 3 days of treatment

| EC50 (A549 cells [3]) [µM] | IC50 (A549 cells [3]) [µM] | SMILES | Induction of Histone H2AX phosphorylation (marker of DNA damage) (A549 cells [1]) | Induction of PARP cleavage (marker of apoptosis) (A549 cells [1]) | DNMT1 depletion (DNMT1 [2]) | HillSlope (H23 cells) | LogIC50 (H23 cells) | EC50 (H23 cells) [µM] | IC50 (H23 cells) [µM] | HillSlope (A549 cells [3]) | LogIC50 (A549 cells [3]) | Downregulated Genes: AZA-Specific / DAC-Specific Genes (number) (A549 cells [4]; 0.3 μM) | Upregulated Genes: AZA-Specific / DAC-Specific Genes (number) (A549 cells [4]; 0.3 μM, fold change ≧1.7) | Downregulated Genes: Genes in Common (number) (A549 cells [4]; 0.3 μM) | Upregulated Genes: Genes in Common (number) (A549 cells [4]; 0.3 μM) | Downregulated Genes: AZA-Specific / DAC-Specific Genes (number) (A549 cells [4]; 1.0 μM) | Upregulated Genes: AZA-Specific / DAC-Specific Genes (number) (A549 cells [4]; 1.0 μM) | Downregulated Genes: Genes in Common (number) (A549 cells [4]; 1.0 μM) | Upregulated Genes: Genes in Common (number) (A549 cells [4]; 1.0 μM) | Downregulated Genes: AZA-Specific / DAC-Specific Genes (number) (A549 cells [4]; 3.0 μM) | other results |
| --- | --- | --- | --- | --- | --- | --- | --- | --- | --- | --- | --- | --- | --- | --- | --- | --- | --- | --- | --- | --- | --- |
| 6.4 | 6.36 | Nc1ncn([C@@H]2O[C@H](CO)[C@@H](O)[C@H]2O)c(=O)n1 [AZA, 4-amino-1-β-D-ribofuranosyl-1,3,5-triazin-2(1H)-one] | induced | induced | time- and dose-dependent depletion | −1.054 | 1.005 | 10.1 | 10.1 | −1.108 | 0.8033 | 14 | 16 | 11 | 17 | 273 | 279 | 30 | 45 | 560 | Upregulated Genes: AZA-Specific / DAC-Specific Genes (number) (A549 cells [4]; 3.0 μM): 636; Downregulated Genes: Genes in Common (number) (A549 cells [4]; 3.0 μM): 55; Upregulated Genes: Genes in Common (number) (A549 cells [4]; 3.0 μM): 66; Regulation of genes in the Response to DNA Damage Stimulus/DNA Repair biogroup (A549 cells [4]): general upregulation; DNMT1 protein levels (DNMT1 [5]; 20 hours): significantly reduced; Early- and late-apoptotic cell populations (AnnexinV/7-AAD) (H460 cells; 30-hour treatment): dramatic increase in early-apoptotic (AnnexinV^+7-AAD^−) and late-apoptotic (AnnexinV^+7-AAD^−) cells; Early- and late-apoptotic cell populations (AnnexinV/7-AAD) (H460 cells; 48-hour treatment): dramatic increase in early-apoptotic (AnnexinV^+7-AAD^−) cells; Early- and late-apoptotic cell populations (AnnexinV/7-AAD) (NSCLC cell types): dramatic increase in early-apoptotic (AnnexinV+ 7-AAD−) and late-apoptotic (AnnexinV+ 7-AAD+) cells; Concentrations affecting Histone H2AX phosphorylation and PARP cleavage (H1299 cells): above 3 μM; Induction of Histone H2AX phosphorylation (H1299 cells; [6]): induced; Induction of PARP cleavage (H1299 cells; [6]): induced |
| > 25 | 35.9 | Nc1ncn([C@H]2C[C@H](O)[C@@H](CO)O2)c(=O)n1 [DAC, 5-aza-2′-deoxycytidine] | did not have any effect and not | did not have any effect and not | time- and dose-dependent depletion | −0.3790 | 1.268 | 18.5 | 18.5 | −0.4617 | 1.556 | 55 | 139 | 11 | 17 | 111 | 261 | 30 | 45 | 239 | p21 expression (A549 cells [1]; 24 h and 48 h): induce; p53 expression (A549 cells [1]; 24 h and 48 h): induce; Induction of Histone H2AX phosphorylation (A549 cells [1]; 6 days of treatment): lack of induction; Induction of PARP cleavage (A549 cells [1]; 6 days of treatment): lack of induction; Fold more genes modulated than AZA (A549 cells [4]; A549 (stated for A549 and H1299 together), 0.3 μM): 4- to 20 fold; Upregulated Genes: AZA-Specific / DAC-Specific Genes (number) (A549 cells [4]; 3.0 μM): 413; Downregulated Genes: Genes in Common (number) (A549 cells [4]; 3.0 μM): 55; Upregulated Genes: Genes in Common (number) (A549 cells [4]; 3.0 μM): 66; Regulation of genes in the Response to DNA Damage Stimulus/DNA Repair biogroup (A549 cells [4]): general downregulation; DNMT1 depletion (DNMT1 [5]; 0.3-10 μM, 48 h (Example 5)): able to cause DNMT1 depletion; Relative potency in reducing DNMT1 levels (DNMT1 [5]; 20 hours): more potent than AZA; DNMT1 protein levels (DNMT1 [5]; 20 hours): significantly reduced; Early- and late-apoptotic cell populations (AnnexinV/7-AAD) (H460 cells; 30-hour treatment): very slight increase in these cell populations; also recorded: very slight increase in this cell population; Early- and late-apoptotic cell populations (AnnexinV/7-AAD) (H460 cells; 48-hour treatment): some increase in this cell population; Early- and late-apoptotic cell populations (AnnexinV/7-AAD) (NSCLC cell types): very slight increase in these cell populations; Induction of Histone H2AX phosphorylation (H1299 cells; [6]): did not have any effect; Induction of PARP cleavage (H1299 cells; [6]): did not have any effect; Induction of Histone H2AX phosphorylation (H1299 cells; 6 days of treatment): induced strong; Induction of PARP cleavage (H1299 cells; 6 days of treatment): failed to induce significant |
